Where no end group is shown, it is not given here.

Data set [1] concerns release of GH by the pituitary. The data set is described as follows: relative in vivo potency of GRF analogs (Table I). The following applies: expected from the relative in vivo potency at a dose of 0.01 nmol/kg; ED50 not determined.
Another data set deals with plasma DPP-IV. The class given is in vitro ADME, bovine. The procedure: Evidence of the improved metabolic stability of the compounds of this invention (when compared to native GRF) is illustrated in Table I by the in vitro stability data provided. It is noteworthy that in bovine plasma in vitro, the analogs having […], Val², Ile² or Leu² were not cleaved after residue 2 by plasma DPP-IV under the experimental conditions used in the study (one hour plasma incubation).

Turning to “Ile² Ala¹⁵ Leu²⁷ bGRF(1-29)NH₂, trifluoroacetate salt [Cpd. No. 3]”, in data set [1], the “potency relative to its isomer Leu2 Ala15 Leu27 bGRF(1-29)NH2, trifluoroacetate salt, when the ED50 of each is determined and compared” value is given as 10-20 times. On to “YTDAIFTNSYRKVLAQLSARKLLQDILNR-NH2 [Cpd. No. 1, Thr² Ala¹⁵ Leu²⁷ bGRF(1-29)NH₂, trifluoroacetate salt]”, for which the DPP-IV related cleavage result in the data set with plasma DPP-IV was “slight DPP-IV related cleavage”.

The record behind these values is EP0477217B1, “STABILIZED, POTENT GRF ANALOGS” (THE UPJOHN COMPANY, priority 1989, dated 1994).
